According to patent US6646151B1 (dated 2003):

C#CCO/N=C(/C(C)=NOCc1ccccc1C(=COC)C(=O)OC)c1ccc(F)cc1
melting point: 91 to 93 °C

CCO/N=C(/C(C)=NOCc1ccccc1C(=NOC)C(=O)OC)c1ccc(Oc2ccc(Cl)cc2)cc1
melting point: 90 to 93 °C

CO/C=C(/C(=O)OC)c1ccccc1CO/N=C(C)/C(=N/OC)c1ccc(OCc2cccc(C(F)(F)F)c2)cc1
melting point: 102 to 103 °C
